We go through one compound from publication PMC12656268, “Venom Peptides Across Asian and American Tarantulas Utilize Dual Pharmacology to Target Activation and Fast Inactivation of Voltage-Gated Sodium Channels” (Toxins, 2025).

“And” between values parts separate entries of the source, which are not always exact repeats. Equal entries are not always repeated. Positions of bridges follow the written chain, without caps; N, C: chain ends. Residues, ends and D or L forms follow the SMILES beside them.

The experiment deals with NaV1.3 (Homo sapiens, UniProt Q9NY46). Briefly: Voltage dependence of steady-state inactivation and activation, NaV1.3. The experiment is classed as cell-based. The method, then: The voltage dependence of steady-state activation was assessed by recording sodium currents evoked by depolarizing voltage steps ranging from −110 mV to +80 mV in 5 mV increments. Peak conductance (GNa) was derived using the equation G = I/(V − Vrev), where I denotes the measured current, V the applied membrane potential, and Vrev the sodium reversal potential. To evaluate the voltage dependence of steady-state fast inactivation, a two-pulse protocol was used. Cells were conditioned with 500 ms pre-pulses at potentials between −130 mV and −10 mV (10 mV increments), followed by a 20 ms test depolarization to 0 mV to elicit sodium currents. The steady-state fast inactivation currents were plotted as I/Imax, where I = current value and Imax = highest current value within the experiment. The voltage-dependence of steady-state activation and inactivation were determined either in the absence of peptide or following 5 min exposure to peptide at the respective IC50 concentration at the NaV subtype analyzed to streamline the investigation using an effective single concentration as previously described by us.
Sequence of NaV1.3 (Q9NY46 whole entry): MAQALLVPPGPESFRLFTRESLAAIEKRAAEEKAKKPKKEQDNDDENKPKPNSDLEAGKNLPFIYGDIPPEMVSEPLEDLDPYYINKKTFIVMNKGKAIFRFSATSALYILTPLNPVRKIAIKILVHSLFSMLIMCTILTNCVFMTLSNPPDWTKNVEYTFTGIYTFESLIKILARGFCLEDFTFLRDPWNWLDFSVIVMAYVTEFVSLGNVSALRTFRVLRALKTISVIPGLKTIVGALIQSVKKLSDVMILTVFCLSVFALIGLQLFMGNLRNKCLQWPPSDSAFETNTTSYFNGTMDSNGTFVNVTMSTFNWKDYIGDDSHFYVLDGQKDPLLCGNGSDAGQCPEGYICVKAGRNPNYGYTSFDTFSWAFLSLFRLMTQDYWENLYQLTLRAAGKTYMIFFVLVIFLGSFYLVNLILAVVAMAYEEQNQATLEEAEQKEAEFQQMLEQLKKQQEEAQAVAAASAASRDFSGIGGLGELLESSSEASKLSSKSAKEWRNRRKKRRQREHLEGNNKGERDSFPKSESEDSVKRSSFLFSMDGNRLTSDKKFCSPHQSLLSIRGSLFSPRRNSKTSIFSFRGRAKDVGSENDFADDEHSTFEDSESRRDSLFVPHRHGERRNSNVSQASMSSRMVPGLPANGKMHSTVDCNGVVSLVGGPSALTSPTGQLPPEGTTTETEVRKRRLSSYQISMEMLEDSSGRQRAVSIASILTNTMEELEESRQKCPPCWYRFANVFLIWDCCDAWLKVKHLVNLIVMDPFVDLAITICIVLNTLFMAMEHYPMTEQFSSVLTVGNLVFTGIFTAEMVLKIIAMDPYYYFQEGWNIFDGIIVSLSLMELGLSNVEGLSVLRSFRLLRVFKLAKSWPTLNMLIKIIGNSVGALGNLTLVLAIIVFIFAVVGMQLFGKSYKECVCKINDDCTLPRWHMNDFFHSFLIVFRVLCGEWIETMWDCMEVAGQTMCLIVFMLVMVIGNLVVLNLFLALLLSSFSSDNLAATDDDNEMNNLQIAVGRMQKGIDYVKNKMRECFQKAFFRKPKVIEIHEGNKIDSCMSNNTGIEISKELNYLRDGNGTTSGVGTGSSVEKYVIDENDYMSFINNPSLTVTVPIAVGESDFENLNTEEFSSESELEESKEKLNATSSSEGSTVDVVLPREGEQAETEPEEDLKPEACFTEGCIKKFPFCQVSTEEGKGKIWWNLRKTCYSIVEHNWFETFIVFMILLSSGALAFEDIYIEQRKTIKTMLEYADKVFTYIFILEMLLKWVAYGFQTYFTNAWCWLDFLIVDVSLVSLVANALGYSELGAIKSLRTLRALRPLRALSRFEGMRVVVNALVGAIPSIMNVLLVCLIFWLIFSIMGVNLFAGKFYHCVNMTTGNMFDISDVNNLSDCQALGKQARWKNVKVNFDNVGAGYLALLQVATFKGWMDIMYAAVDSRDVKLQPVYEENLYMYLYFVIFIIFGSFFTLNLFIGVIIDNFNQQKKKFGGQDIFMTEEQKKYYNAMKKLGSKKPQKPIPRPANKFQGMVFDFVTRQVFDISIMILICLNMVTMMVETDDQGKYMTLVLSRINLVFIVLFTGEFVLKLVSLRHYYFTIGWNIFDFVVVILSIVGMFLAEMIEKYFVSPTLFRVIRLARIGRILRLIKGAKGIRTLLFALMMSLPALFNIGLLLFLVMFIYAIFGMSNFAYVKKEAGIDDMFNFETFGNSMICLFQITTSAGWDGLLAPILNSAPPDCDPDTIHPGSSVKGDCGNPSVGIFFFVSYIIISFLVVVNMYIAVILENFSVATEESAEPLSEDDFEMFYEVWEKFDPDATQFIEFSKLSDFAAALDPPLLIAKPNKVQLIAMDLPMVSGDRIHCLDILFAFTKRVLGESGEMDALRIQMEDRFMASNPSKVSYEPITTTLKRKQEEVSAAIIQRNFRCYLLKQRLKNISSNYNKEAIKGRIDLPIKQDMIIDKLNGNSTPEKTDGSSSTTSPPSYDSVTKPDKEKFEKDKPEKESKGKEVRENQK
Sequence of NaV1.3 (Q07699 19-218, further chain): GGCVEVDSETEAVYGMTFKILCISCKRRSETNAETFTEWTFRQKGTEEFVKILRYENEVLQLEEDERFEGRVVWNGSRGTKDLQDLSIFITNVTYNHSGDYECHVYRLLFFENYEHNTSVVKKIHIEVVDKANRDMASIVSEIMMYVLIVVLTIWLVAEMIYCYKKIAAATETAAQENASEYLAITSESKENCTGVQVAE
For calcium influx experiments, bioactivity comparisons between venom fractions and controls were based on the difference between the maximal and minimal fluorescence intensity values obtained from single-replicate assays. Electrophysiological data analysis was conducted using GraphPad Prism (version 8; GraphPad Software, San Diego, CA, USA). Nonlinear regression was applied to fit the concentration–response relationships using a variable Hill slope: log(inhibitor) versus normalized response for determining IC50 values, and log(agonist) versus normalized response for EC50 calculations. Reversibility and dissociation kinetics were analyzed by fitting data with a single-phase exponential decay model, while voltage-dependence of steady-state activation and inactivation parameters were derived from Boltzmann sigmoid fits of normalized conductance (G/Gmax) or current (I/Imax) values to determine the half-activation or half-inactivation voltages (V50). Data are expressed as mean ± SEM, where n represents the number of individual cells analyzed.

As for `CC(C)C[C@@H]1NC(=O)[C@H](Cc2ccccc2)NC(=O)[C@H](Cc2ccc(O)cc2)NC(=O)[C@H](CCCNC(=N)N)NC(=O)[C@@H](NC(=O)[C@@H](N)CCC(=O)O)CSSC[C@@H]2NC(=O)[C@@H]3CSSC[C@@H](C(=O)N[C@H](C(=O)N[C@@H](Cc4c[nH]c5ccccc45)C(=O)N[C@@H](CC(=O)O)C(=O)N[C@@H](Cc4c[nH]c5ccccc45)C(=O)N[C@H](C(=O)N[C@@H](Cc4ccccc4)C(N)=O)[C@@H](C)O)C(C)C)NC(=O)[C@H](Cc4c[nH]c5ccccc45)NC(=O)[C@H](CCC(N)=O)NC(=O)[C@H](Cc4c[nH]cn4)NC(=O)[C@H](CCCCN)NC(=O)[C@H](CC(N)=O)NC(=O)[C@H](Cc4c[nH]cn4)NC(=O)[C@H](CSSC[C@H](NC(=O)CNC(=O)CNC1=O)C(=O)N[C@@H](CO)C(=O)N[C@@H](CCC(N)=O)C(=O)NCC(=O)N[C@@H](CCC(=O)O)C(=O)N[C@@H](CCCCN)C(=O)N3)NC(=O)[C@H](C(C)C)NC(=O)[C@H](CC(C)C)NC(=O)[C@H](Cc1c[nH]cn1)NC(=O)[C@H](CCC(=O)O)NC2=O` [sOa1a-NH2] (H-ECRYFLGGCSQGEKCCEHLVCHNKHQWCVWDWTF-NH2; disulfide 2-16, 9-21, 15-28; N-terminus assumed), the “V50 of steady-state activation in presence of peptide, NaV1.3” value (control V50 = −21 ± 0.4 mV, steps −110 to +80 mV in 5 mV increments, mean ± SEM, 3 to 5 repeats) was −26 mV. The “V50 of steady-state inactivation in presence of peptide, NaV1.3” value (control V50 = −71 ± 0.71 mV, 5 min exposure at IC50 concentration, 23 nM, 500 ms pre-pulses −130 to −10 mV, mean ± SEM, 3 to 5 repeats) was -57 ± 1.4 mV and −57 mV. The “ΔV50 of steady-state inactivation, NaV1.3” value (peptide vs control, shift to more depolarized potentials, 3 to 5 repeats) came to 14 mV. The “Shift in voltage of activation, NaV1.3” value (presence of 23 nM sOa1a-NH2) is at most 5 mV.
